# Laboratory results taken from PMC8537953 (Viruses, 2021).
# Where two headings read alike, the source gives them in different places.
# Assays:
# influenza A = conditions: read-out: in vitro EC50 (influenza A); cited from earlier work
# in vitro = conditions: human
# [1] = human, in vivo, cited from earlier work
# [2] = cited from earlier work
# SARS-CoV-2 [3] = conditions: read-out: EC50 against SARS-CoV-2; cited from earlier work
# SARS-CoV-2 [4] = assay: microbe, parasite or virus in culture; assay type: cell-based; conditions: Severe acute respiratory syndrome coronavirus 2, Vero C1008, 6 h, read-out: % inhibition of SARS-CoV-2 infection, post-entry treatment
compound,measurement,setting,value
"NC12CC3CC(CC(C3)C1)C2 [Amantadine, amantadine]",EC50,influenza A,16 µM
same,viability,in vitro,> 50%
same,Cmax,[1]; 200 mg,2700 nM
same,"PPB, plasma protein binding, % of compound bound to plasma proteins",[2]; plasma,67%
"CC12CC3CC(C)(C1)CC(N)(C3)C2 [Memantine, memantine]","PPB, plasma protein binding, % of compound bound to plasma proteins",[2]; ref FDA reports,45%
"CCC(CC)COC(=O)[C@H](C)N[P@](=O)(OC[C@H]1O[C@@](C#N)(c2ccc3c(N)ncnn23)[C@H](O)[C@@H]1O)Oc1ccccc1 [Remdesivir, remdesivir]",EC50,SARS-CoV-2 [3],2.5 µM
"CC(N)C12CC3CC(CC(C3)C1)C2 (centres unmarked) [Rimantadine, rimantadine]",inhibition at 230 µM,SARS-CoV-2 [4],> 99%
same,Cmax,[1],2200 nM
